pEC50: −log10 of the molar value.
Tested on: HEK293T cells carrying the ATF4 luciferase reporter
Experiment: ATF4-Luc assay, in vitro model of Vanishing Cell White Matter Disease (VWMD)
Assay type: cell-based
Conditions: Homo sapiens, HEK-293T, 1 μg/mL tunicamycin, 7 hours, One Glo luminescence
Method in brief: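 Compound at 200 nM and tunicamycin at 1 μg/mL were given together for 7 h to HEK293T cells stably transduced with an ATF4 5′-UTR-driven firefly luciferase reporter. Read-out by luminescence, reported as EC50.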

Row | SMILES | pEC50
1 | O=C(COc1ccc(Cl)c(F)c1)NC12CC(NC(=O)c3ncoc3C3CC3)(C1)C2 [Compound 769, N-{3-[2-(4-chloro-3-fluorophenoxy)acetamido]bicyclo[1.1.1]pentan-1-yl}-5-cyclopropyl-1,3-oxazole-4-carboxamide] | < 5.70
2 | CC(=O)Nc1ccc(C(=O)NC23CC(NC(=O)COc4ccc(Cl)c(F)c4)(C2)C3)cn1 [Compound 805, 6-acetamido-N-{3-[2-(4-chloro-3-fluorophenoxy)acetamido]bicyclo[1.1.1]pentan-1-yl}pyridine-3-carboxamide] | < 5.70
3 | O=C(COc1ccc(Cl)c(Cl)c1)NC12CC(NC(=O)c3cnc(-c4ccccc4)o3)(C1)C2 [Compound 740, N-{3-[2-(3,4-dichlorophenoxy)acetamido]bicyclo[1.1.1]pentan-1-yl}-2-phenyl-1,3-oxazole-5-carboxamide] | > 7.30
4 | Cn1cccc1C(=O)NC12CC(NC(=O)COc3ccc(Cl)c(F)c3)(C1)C2 [Compound 821, N-{3-[2-(4-chloro-3-fluorophenoxy)acetamido]bicyclo[1.1.1]pentan-1-yl}-1-methyl-1H-pyrrole-2-carboxamide] | < 5.70
5 | Cc1nocc1C(=O)NC12CCC(NC(=O)COc3ccc(Cl)c(F)c3)(CC1)C(O)C2 (stereo not shown) [Compound 605, N-{4-[2-(4-chloro-3-fluorophenoxy)acetamido]-3-hydroxybicyclo[2.2.2]octan-1-yl}-3-methyl-1,2-oxazole-4-carboxamide] | < 5.70
6 | Cc1cc(C(=O)NC23CC(NC(=O)COc4ccc(Cl)c(F)c4)(C2)C3)ncc1Cl [Compound 664, 5-chloro-N-{3-[2-(4-chloro-3-fluorophenoxy)acetamido]bicyclo[1.1.1]pentan-1-yl}-4-methylpyridine-2-carboxamide] | 6.00 to 6.60
7 | O=C(COc1ccc(Cl)c(F)c1)NC12CC(NC(=O)c3cc4n(n3)CCC4)(C1)C2 [Compound 259, N-{3-[2-(4-chloro-3-fluorophenoxy)acetamido]bicyclo[1.1.1]pentan-1-yl}-5,6-dihydro-4H-pyrrolo[1,2-b]pyrazole-2-carboxamide] | 6.00 to 6.60
8 | CC(C)c1cc(C(=O)NC23CC(NC(=O)COc4ccc(Cl)c(F)c4)(C2)C3)on1 [Compound 350, N-{3-[2-(4-chloro-3-fluorophenoxy)acetamido]bicyclo[1.1.1]pentan-1-yl}-3-(propan-2-yl)-1,2-oxazole-5-carboxamide] | 6.00 to 6.60
9 | Cc1ccc2nc(C(=O)NC34CCC(NC(=O)COc5ccc(Cl)c(F)c5)(CC3)C(O)C4)cn2c1 (stereo not shown) [Compound 597, N-{4-[2-(4-chloro-3-fluorophenoxy)acetamido]-3-hydroxybicyclo[2.2.2]octan-1-yl}-6-methylimidazo[1,2-a]pyridine-2-carboxamide] | 6.00 to 6.60
10 | CCc1cc(C(=O)NC23CC(NC(=O)COc4ccc(Cl)c(Cl)c4)(C2)C3)n(C)n1 [Compound 584, N-{3-[2-(3,4-dichlorophenoxy)acetamido]bicyclo[1.1.1]pentan-1-yl}-3-ethyl-1-methyl-1H-pyrazole-5-carboxamide] | > 7.30
11 | O=C(COc1ccc(Cl)c(F)c1)NC12CC(NC(=O)c3ccccc3-n3cncn3)(C1)C2 [Compound 862, N-{3-[2-(4-chloro-3-fluorophenoxy)acetamido]bicyclo[1.1.1]pentan-1-yl}-2-(1H-1,2,4-triazol-1-yl)benzamide] | < 5.70
12 | O=C(COc1ccc(Cl)c(F)c1)NC12CCC(NC(=O)c3ccc4oc(=O)ccc4c3)(CC1)[C@@H](O)C2 [Compound 407, N-{(2S)-4-[2-(4-chloro-3-fluorophenoxy)acetamido]-2-hydroxybicyclo[2.2.2]octan-1-yl}-2-oxo-2H-1-benzopyran-6-carboxamide] | 5.70 to 6.00
13 | COCc1ccccc1C(=O)NC12CC(NC(=O)COc3ccc(Cl)c(F)c3)(C1)C2 [Compound 550, N-{3-[2-(4-chloro-3-fluorophenoxy)acetamido]bicyclo[1.1.1]pentan-1-yl}-2-(methoxymethyl)benzamide] | 5.70 to 6.00
14 | Cc1cc(C(=O)NC23CC(NC(=O)COc4ccc(Cl)c(Cl)c4)(C2)C3)on1 [Compound 431, N-{3-[2-(3,4-dichlorophenoxy)acetamido]bicyclo[1.1.1]pentan-1-yl}-3-methyl-1,2-oxazole-5-carboxamide] | 6.60 to 7.30
15 | Cn1ccc(C(=O)NC23CCC(NC(=O)COc4ccc(Cl)c(F)c4)(CC2)C(O)C3)n1 (stereo not shown) [Compound 361, N-{4-[2-(4-chloro-3-fluorophenoxy)acetamido]-3-hydroxybicyclo[2.2.2]octan-1-yl}-1-methyl-1H-pyrazole-3-carboxamide] | 6.60 to 7.30
16 | Cn1c(C(=O)NC23CC(NC(=O)COc4ccc(Cl)c(F)c4)(C2)C3)ccc1S(N)(=O)=O [Compound 867, N-{3-[2-(4-chloro-3-fluorophenoxy)acetamido]bicyclo[1.1.1]pentan-1-yl}-1-methyl-5-sulfamoyl-1H-pyrrole-2-carboxamide] | < 5.70
17 | CC(=O)c1ccnc(C(=O)NC23CC(NC(=O)COc4ccc(Cl)c(F)c4)(C2)C3)c1 [Compound 501, 4-acetyl-N-{3-[2-(4-chloro-3-fluorophenoxy)acetamido]bicyclo[1.1.1]pentan-1-yl}pyridine-2-carboxamide] | 5.70 to 6.00
18 | Cc1cc(C(=O)NC23CCC(NC(=O)COc4ccc(Cl)c(F)c4)(CC2)[C@H](O)C3)on1 (single isomer, unassigned) [Compound 357] | 6.00 to 6.60
19 | O=C(COc1ccc(Cl)c(F)c1)NC12CC(NC(=O)c3cnc(C(F)(F)F)cn3)(C1)C2 [Compound 115, N-{3-[2-(4-chloro-3-fluorophenoxy)acetamido]bicyclo[1.1.1]pentan-1-yl}-5-(trifluoromethyl)pyrazine-2-carboxamide] | 5.70 to 6.00
20 | O=C(COc1ccc(Cl)c(F)c1)NC12CC(NC(=O)c3ccncn3)(C1)C2 [Compound 187, N-{3-[2-(4-chloro-3-fluorophenoxy)acetamido]bicyclo[1.1.1]pentan-1-yl}pyrimidine-4-carboxamide] | 5.70 to 6.00
21 | O=C(COc1ccc(Cl)c(F)c1)NC12CCC(NC(=O)c3ccns3)(CC1)C[C@@H]2O [Compound 683, N-{(3S)-4-[2-(4-chloro-3-fluorophenoxy)acetamido]-3-hydroxybicyclo[2.2.2]octan-1-yl}-1,2-thiazole-5-carboxamide] | > 7.30
22 | Cn1cc(C(=O)NC23CCC(NC(=O)COc4ccc(Cl)c(F)c4)(CC2)C(O)C3)cn1 (stereo not shown) [Compound 626, N-{4-[2-(4-chloro-3-fluorophenoxy)acetamido]-3-hydroxybicyclo[2.2.2]octan-1-yl}-1-methyl-1H-pyrazole-4-carboxamide] | 6.60 to 7.30
23 | Cc1ncc(C(=O)NC23CCC(NC(=O)COc4ccc(Cl)c(F)c4)(CC2)C(O)C3)s1 (stereo not shown) [Compound 471, N-{4-[2-(4-chloro-3-fluorophenoxy)acetamido]-3-hydroxybicyclo[2.2.2]octan-1-yl}-2-methyl-1,3-thiazole-5-carboxamide] | 6.60 to 7.30
24 | Cc1nocc1C(=O)NC12CC(NC(=O)COc3ccc(Cl)c(F)c3)(C1)C2 [Compound 879, N-{3-[2-(4-chloro-3-fluorophenoxy)acetamido]bicyclo[1.1.1]pentan-1-yl}-3-methyl-1,2-oxazole-4-carboxamide] | < 5.70
25 | Cc1cnc(C(=O)NC23CC(NC(=O)COc4ccc(Cl)c(F)c4)(C2)C3)nc1 [Compound 268, N-{3-[2-(4-chloro-3-fluorophenoxy)acetamido]bicyclo[1.1.1]pentan-1-yl}-5-methylpyrimidine-2-carboxamide] | 6.60 to 7.30

Reference: patent publication US10913727B2, “Modulators of the integrated stress pathway” (Calico Life Sciences LLC, priority 2016, dated 2021)
